Read-outs that look alike come from different tables or passages of the source.
Legend:
hepatitis C virus = conditions: in vitro; cited from earlier work
macrophages IC-21 [1] = assay type: cell-based, mouse
[2] = concentrations of the order of tens of μM; cited from earlier work
macrophages IC-21 [3] = test: Binding of 2-μm non-opsonized latex particles by macrophages; assay type: cell-based, mouse
macrophages IC-21 [4] = conditions: peptide at 50 μM, IC-21 cells, 1 h

For SWLRDIWDWICEVLSDFK [C5A], the “Suppression of virus production” value (hepatitis C virus) is listed as “more than 5 orders of magnitude”.

For “methyl-β-cyclodextrin [mβCD, reference compound]”, the “Cell activity, % of the control” value (macrophages IC-21 [1]; 3.7 mM mβCD, without a peptide, representative experiment, p < 0.001) was 121 % of the control.

For VLNYYVW, the Toxicity [2] is given as “not toxic”.

For ATVLNYYVWRDNS, the Toxicity [2] is listed as “not toxic”.

For “Ac-STKLSEMLSELGNMDKASKLSRKLSR-NH2 [Mut2]”, the “Change in the phagocytosis index” value (macrophages IC-21 [3]; concentration range from 0.5 to 50 μM, 6 independent experiments for each peptide) was “did not cause significant changes” and the “Toxic effect on cells” value (macrophages IC-21 [4]) was “not toxic”.

In the case of “Ac-EWGMAVLWERNRKLKKDLKVLKMLRT-NH2 [Mut1]”, the “Number of particles per cell, % of the control” value (macrophages IC-21 [3]; Mut1 at 2–10 μM, 7 independent experiments) is reported as ~ 160 % of the control, the “Concentration range at which maximal stimulatory effect was observed” value (macrophages IC-21 [3]; number of particles per cell, IC-21, 1 h at 37°C, peptide range 0.5 to 50 μM) is reported as 4 to 5 µM and the “Phagocytic index relative to control” value (macrophages IC-21 [3]; peptide at 50 μM, 7 independent experiments) is reported as “returned to the control level”. For the same substance, the “Toxic effect on cells” value (macrophages IC-21 [4]) was “did not exert a toxic effect” and the “Number of particles per cell, % of the control” value (macrophages IC-21 [1]; peptide at 2 μM, cells not treated with mβCD, representative experiment (Fig. 5)) was 134 % of the control.

Reference: article PMC7709805 (Biochemistry (Moscow) Supplement. Series A, Membrane and …, 2020)
